Test results taken from ChEMBL document CHEMBL5537208 (J Med Chem, 2024).
Converted amounts (≈) assume the structure as drawn.

Key:
[1] = Apparent permeability across apical to basal side in MDCKI-MDR1 cells; format: ADME, cell-based, Canis lupus familiaris; settings: dog, MDCK-MDR1
[2] = Apparent permeability across basal to apical side in MDCKI-MDR1 cells; format: ADME, cell-based, Canis lupus familiaris; settings: dog, MDCK-MDR1
[3] = Unbound drug concentration in Wistar rat brain at 30 mg/kg, po measured after 1 hr by LC-tandem MS analysis; format: ADME, organism-based; settings: in vivo
[4] = Unbound drug concentration in Wistar rat brain at 100 mg/kg, po measured after 1 hr by LC-tandem MS analysis; format: ADME, organism-based; settings: in vivo
[5] = Drug absorption in rat; format: ADME; settings: in vivo
[6] = Drug concentration in Wistar rat Cerebrospinal fluid at 30 mg/kg, po measured after 1 hr by LC-tandem MS analysis; format: ADME, organism-based; settings: read-out: Ct
[7] = Drug concentration in Wistar rat Cerebrospinal fluid at 100 mg/kg, po measured after 1 hr by LC-tandem MS analysis; format: ADME, organism-based; settings: read-out: Ct
[8] = Thermodynamic solubility in FaSSIF at pH 6.5; format: ADME; settings: read-out: Therm_solubility
[9] = Clearance in rat; format: ADME; settings: in vivo
[10] = Unbound drug concentration in Wistar rat brain at 1 mg/kg, po measured after 1 hr by LC-tandem MS analysis; format: ADME, organism-based; settings: in vivo
[11] = Clearance in dog; format: ADME, Canis lupus familiaris; settings: in vivo
[12] = Drug absorption in dog; format: ADME, Canis lupus familiaris; settings: in vivo
[13] = target: T1, Orexin/Hypocretin receptor type 1 (Homo sapiens, UniProt O43613)
T1 sequence (O43613 whole entry): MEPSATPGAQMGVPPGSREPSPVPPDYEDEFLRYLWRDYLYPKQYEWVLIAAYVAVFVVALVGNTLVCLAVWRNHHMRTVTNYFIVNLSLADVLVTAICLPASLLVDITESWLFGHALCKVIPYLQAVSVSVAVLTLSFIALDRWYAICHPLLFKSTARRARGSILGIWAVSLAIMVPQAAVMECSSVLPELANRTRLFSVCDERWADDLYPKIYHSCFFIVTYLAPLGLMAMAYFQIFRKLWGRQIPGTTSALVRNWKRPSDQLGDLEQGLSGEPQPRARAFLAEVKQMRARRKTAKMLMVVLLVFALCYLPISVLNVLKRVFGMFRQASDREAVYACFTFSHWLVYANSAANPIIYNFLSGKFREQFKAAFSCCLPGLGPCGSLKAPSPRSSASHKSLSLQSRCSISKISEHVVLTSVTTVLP
Description: Antagonist activity at human OX1R expressed in CHO cells preincubated for 120 mins followed by orexin-A addition by FLIPR assay

in vitro [14] = settings: human, liver microsomes
in vitro [15] = settings: rat, liver microsomes
[16] = In vivo receptor occupancy at OX2R in Wistar rat brain at 100 mg/kg, po measured after 1 hr relative to control; format: functional
Orexin receptor type 2 = target: T2, Orexin receptor type 2 (Homo sapiens, UniProt O43614)
T2 sequence (O43614 whole entry): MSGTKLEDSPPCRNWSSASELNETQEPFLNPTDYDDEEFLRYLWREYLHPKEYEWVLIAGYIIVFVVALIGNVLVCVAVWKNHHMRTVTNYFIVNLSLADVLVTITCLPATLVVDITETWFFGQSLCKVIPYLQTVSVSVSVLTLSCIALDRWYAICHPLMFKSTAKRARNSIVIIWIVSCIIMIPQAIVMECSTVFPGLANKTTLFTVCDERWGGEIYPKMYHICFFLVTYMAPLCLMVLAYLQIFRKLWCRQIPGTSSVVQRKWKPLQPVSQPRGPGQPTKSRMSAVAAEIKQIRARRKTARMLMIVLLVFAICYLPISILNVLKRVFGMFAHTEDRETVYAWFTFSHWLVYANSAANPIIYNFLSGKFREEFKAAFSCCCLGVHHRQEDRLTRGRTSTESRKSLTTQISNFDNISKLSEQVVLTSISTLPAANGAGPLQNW
Description: Antagonist activity at human OX2R expressed in CHO cells preincubated for 120 mins followed by orexin-A addition by FLIPR assay

[17] = Drug concentration in cerebrospinal fluid of Wistar rat at 1 mg/kg, po measured after 1 hr by LC-tandem MS analysis; format: ADME, organism-based; settings: read-out: Ct
[18] = Solubility of compound in FeSSIF; format: ADME
[19] = Apparent permeability in wild-type MDCK-II cells; format: ADME, cell-based, Canis lupus familiaris; settings: dog
[20] = Ratio of unbound drug concentration in Wistar rat brain to plasma at 1 mg/kg, po measured after 1 hr by LC-tandem MS analysis; format: ADME, organism-based; settings: read-out: K(p,uu,brain)
in vitro [21] = settings: dog, MDCK-MDR1
Description: Efflux ratio in MDCKI-MDR1 cells

[22] = Unbound drug concentration in Wistar rat plasma at 1 mg/kg, po measured after 1 hr by LC-tandem MS analysis; format: ADME, organism-based; settings: in vivo
[23] = In vivo receptor occupancy at OX2R in Wistar rat brain at 30 mg/kg, po measured after 1 hr relative to control; format: functional
[24] = Thermodynamic solubility in FeSSIF at pH 5.0; format: ADME; settings: read-out: Therm_solubility

Papp A→B [1]: 20.4 ×10⁻⁶ cm/s
Papp B→A [2]: 70.5 ×10⁻⁶ cm/s
Drug uptake(free) [3]: 92 nM
Drug uptake(free) [4]: 413 nM
Drug absorption [5]: Active
concentration at 1 h [6]: 240 nM
concentration at 1 h [7]: 718 nM
solubility thermodynamic [8]: 72 µg/mL (≈ 168 µM)
clearance [9]: 31 mL/min/kg
Drug uptake(free) [10]: 413 nM
clearance [11]: 7.7 mL/min/kg
Drug absorption [12]: Active
IC50 [13]: 1.7 nM
microsomal CLint at 1 µM (in vitro [14]): 156 µL/min/mg
microsomal CLint at 1 µM (in vitro [15]): > 1250 µL/min/mg
IC50 (Orexin receptor type 2): 227 nM
concentration at 1 h [17]: 718 nM
solubility [18]: 270 µg/mL (≈ 629 µM)
Papp [19]: 43.9 ×10⁻⁶ cm/s
Kp uu at 1 h [20]: 1.82
efflux ratio (in vitro [21]): 3.5
Cp(f) [22]: 227 nM
solubility thermodynamic [24]: 150 µg/mL (≈ 349 µM)
SMILES: Cc1ccc(C(=O)N2CCOC[C@H]2Cc2cccc(-n3nccn3)c2)c(-n2nccn2)c1 [NIVASOREXANT]
Occ [16]: 92%
Occ [23]: 71%
